US12059418B2, “Plasmodial surface anion channel inhibitors for the treatment or prevention of malaria” (The United States of America, as represented by the …, priority 2011, dated 2024)

What was measured:
Dd2 parasites = test: In vitro parasite growth inhibition, Dd2; assay type: cell-based, P. falciparum
[1] = target: T1, PSAC of Dd2 transfectant expressing HB3 allele for PFC0110w (clag 3.2) (Plasmodium falciparum, UniProt O77309); test: Sorbitol uptake inhibition, Dd2 transfectant expressing HB3 allele of PFC0110w; settings: read-out: transfectant K0.5; PFC0110w (clag 3.2) HB3 allele in Dd2
T1 sequence (O77309 25-1416): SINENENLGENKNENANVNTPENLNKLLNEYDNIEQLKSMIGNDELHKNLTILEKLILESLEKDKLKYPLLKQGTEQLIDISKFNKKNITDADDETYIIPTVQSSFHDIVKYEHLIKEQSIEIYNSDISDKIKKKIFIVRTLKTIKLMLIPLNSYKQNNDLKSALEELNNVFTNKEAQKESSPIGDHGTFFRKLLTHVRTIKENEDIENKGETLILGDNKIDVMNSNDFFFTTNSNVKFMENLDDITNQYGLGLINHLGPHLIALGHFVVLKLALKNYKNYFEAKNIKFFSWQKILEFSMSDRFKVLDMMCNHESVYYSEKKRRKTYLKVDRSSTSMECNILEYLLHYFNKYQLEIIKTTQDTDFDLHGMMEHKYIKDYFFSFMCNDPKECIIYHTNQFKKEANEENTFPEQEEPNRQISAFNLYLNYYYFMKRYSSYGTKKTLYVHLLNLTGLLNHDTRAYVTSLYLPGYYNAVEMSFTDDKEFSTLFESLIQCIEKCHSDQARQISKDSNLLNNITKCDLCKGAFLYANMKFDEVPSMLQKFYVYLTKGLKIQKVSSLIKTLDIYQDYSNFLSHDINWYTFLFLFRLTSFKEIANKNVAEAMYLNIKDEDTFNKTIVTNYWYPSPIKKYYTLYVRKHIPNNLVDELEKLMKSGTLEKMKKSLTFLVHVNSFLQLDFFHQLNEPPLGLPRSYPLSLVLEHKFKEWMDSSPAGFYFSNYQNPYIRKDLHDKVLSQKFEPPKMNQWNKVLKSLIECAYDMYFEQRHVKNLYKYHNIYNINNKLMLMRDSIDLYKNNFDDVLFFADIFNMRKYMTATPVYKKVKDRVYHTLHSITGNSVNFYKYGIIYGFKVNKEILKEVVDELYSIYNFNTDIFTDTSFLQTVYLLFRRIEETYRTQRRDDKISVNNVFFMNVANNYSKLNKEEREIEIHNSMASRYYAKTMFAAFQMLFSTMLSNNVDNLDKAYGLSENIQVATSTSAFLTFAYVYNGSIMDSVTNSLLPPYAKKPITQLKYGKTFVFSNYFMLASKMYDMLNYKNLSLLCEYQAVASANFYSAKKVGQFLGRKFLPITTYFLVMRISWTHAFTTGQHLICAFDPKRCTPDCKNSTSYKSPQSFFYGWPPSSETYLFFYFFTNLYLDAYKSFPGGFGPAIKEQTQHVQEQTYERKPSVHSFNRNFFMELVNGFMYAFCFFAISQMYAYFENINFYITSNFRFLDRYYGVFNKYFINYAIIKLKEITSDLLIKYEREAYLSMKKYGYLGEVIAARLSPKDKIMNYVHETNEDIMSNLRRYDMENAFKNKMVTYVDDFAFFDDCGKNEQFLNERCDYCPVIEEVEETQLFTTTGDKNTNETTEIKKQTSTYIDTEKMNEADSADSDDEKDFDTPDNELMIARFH

HB3 channels = test: Cell-attached patch-clamp of HB3-infected erythrocytes; settings: 10 μM, 1.1 M Cl−
[2] = target: PSAC of Dd2 transfectant expressing HB3 allele for PFC0120w (clag 3.1) (Plasmodium falciparum, UniProt O77310); settings: read-out: transfectant K0.5; PFC0120w (clag 3.1) HB3 allele in Dd2
[3] = tested on: PSAC on Dd2-infected cells; assay type: cell-based, P. falciparum; settings: Dd2 vs. HB3
HB3 parasites = test: In vitro parasite growth inhibition, HB3; assay type: cell-based, P. falciparum; settings: Plasmodium falciparum
[4] = tested on: PSAC activity on HB3^3rec; assay type: cell-based, P. falciparum; settings: HB3^3rec before selection
PSAC [5] = test: Uptake of alanine, proline and PhTMA by osmotic lysis; assay type: cell-based, P. falciparum
Description: ISPA-28 effects on uptake of the amino acids alanine and proline as well as the organic cation phenyl-trimethylammonium (PhTMA), solutes with known increases in permeability after infection (Ginsburg et al., Mol. Biochem. Parasitol. 14: 313-22 (1985); Bokhari et al., J. Membr. Biol. 226: 27-34 (2008)), were also examined.

[6] = Inhibitor metabolism in parasite culture; assay type: in vitro ADME, P. falciparum; settings: 40 μM, 37° C., 72 h in Dd2 culture
Method: To examine possible inhibitor metabolism in parasite culture, Dd2 parasites were cultivated in standard media with 40 μM ISPA-28 at 37° C. for 72 h. After centrifugation, the culture supernatant was used as a source of ISPA-28 for comparison to freshly-prepared compound in transport inhibition studies.

Dd2 channels = test: Cell-attached patch-clamp of Dd2-infected erythrocytes; settings: 10 μM, 1.1 M Cl−
PSAC [7] = test: Transport inhibition in 22 different laboratory parasite lines; assay type: cell-based, P. falciparum
HB3^3rec = test: In vitro parasite growth inhibition, HB3^3rec in PLM; assay type: cell-based, P. falciparum; settings: after transport-based selection
[8] = tested on: channels from HB3 parasites; test: Sorbitol uptake osmotic lysis, HB3-infected cells; assay type: cell-based, P. falciparum; settings: read-out: K0.5
Method: Inhibitor affinity for PSAC block was determined using a quantitative transmittance assay based on osmotic lysis of infected cells in sorbitol (Wagner et al., Biophys. J., 84: 116-123 (2003)). […] Other inhibitors had dose responses that are adequately fitted by a single Langmuir isotherm.

[9] = target: channels associated with clag3.1 gene from Dd2 (Plasmodium falciparum, UniProt O77310); test: PSAC inhibition, 7C20 channels associated with clag3.1; assay type: cell-based, P. falciparum; settings: clag3.1 from Dd2; read-out: K0.5
Method: (§1) A PSAC inhibitor with reversed specificity for the two Dd2 clag3 products was next sought. To this end, hits from the high-throughput screen of Example 2 were surveyed using the progeny clone 7C20 before and after selection for clag3.1 expression. This secondary screen identified ISPA-43 as a PSAC inhibitor with an allele specificity opposite that of ISPA-28 (Formula B below (K0.5 of 32 and 3.9 μM for channels associated with clag3.1 and clag3.2 genes from Dd2, respectively).

[10] = tested on: channels associated with clag3.2 gene from Dd2; test: PSAC inhibition, 7C20 channels associated with clag3.2; assay type: cell-based, P. falciparum
Method: as §1

[11] = target: T2, channels associated with clag3.2 gene from Dd2 (Plasmodium falciparum, UniProt A0A1W6IZK1); test: as above; assay type: cell-based, P. falciparum; settings: read-out: K0.5; clag3.2 from Dd2
T2 construct: rows headed: K0.5; other: clag3.2 from Dd2
Method: as §1

Chain of channels associated with clag3.1 gene from Dd2 (O77310 whole entry, looked up): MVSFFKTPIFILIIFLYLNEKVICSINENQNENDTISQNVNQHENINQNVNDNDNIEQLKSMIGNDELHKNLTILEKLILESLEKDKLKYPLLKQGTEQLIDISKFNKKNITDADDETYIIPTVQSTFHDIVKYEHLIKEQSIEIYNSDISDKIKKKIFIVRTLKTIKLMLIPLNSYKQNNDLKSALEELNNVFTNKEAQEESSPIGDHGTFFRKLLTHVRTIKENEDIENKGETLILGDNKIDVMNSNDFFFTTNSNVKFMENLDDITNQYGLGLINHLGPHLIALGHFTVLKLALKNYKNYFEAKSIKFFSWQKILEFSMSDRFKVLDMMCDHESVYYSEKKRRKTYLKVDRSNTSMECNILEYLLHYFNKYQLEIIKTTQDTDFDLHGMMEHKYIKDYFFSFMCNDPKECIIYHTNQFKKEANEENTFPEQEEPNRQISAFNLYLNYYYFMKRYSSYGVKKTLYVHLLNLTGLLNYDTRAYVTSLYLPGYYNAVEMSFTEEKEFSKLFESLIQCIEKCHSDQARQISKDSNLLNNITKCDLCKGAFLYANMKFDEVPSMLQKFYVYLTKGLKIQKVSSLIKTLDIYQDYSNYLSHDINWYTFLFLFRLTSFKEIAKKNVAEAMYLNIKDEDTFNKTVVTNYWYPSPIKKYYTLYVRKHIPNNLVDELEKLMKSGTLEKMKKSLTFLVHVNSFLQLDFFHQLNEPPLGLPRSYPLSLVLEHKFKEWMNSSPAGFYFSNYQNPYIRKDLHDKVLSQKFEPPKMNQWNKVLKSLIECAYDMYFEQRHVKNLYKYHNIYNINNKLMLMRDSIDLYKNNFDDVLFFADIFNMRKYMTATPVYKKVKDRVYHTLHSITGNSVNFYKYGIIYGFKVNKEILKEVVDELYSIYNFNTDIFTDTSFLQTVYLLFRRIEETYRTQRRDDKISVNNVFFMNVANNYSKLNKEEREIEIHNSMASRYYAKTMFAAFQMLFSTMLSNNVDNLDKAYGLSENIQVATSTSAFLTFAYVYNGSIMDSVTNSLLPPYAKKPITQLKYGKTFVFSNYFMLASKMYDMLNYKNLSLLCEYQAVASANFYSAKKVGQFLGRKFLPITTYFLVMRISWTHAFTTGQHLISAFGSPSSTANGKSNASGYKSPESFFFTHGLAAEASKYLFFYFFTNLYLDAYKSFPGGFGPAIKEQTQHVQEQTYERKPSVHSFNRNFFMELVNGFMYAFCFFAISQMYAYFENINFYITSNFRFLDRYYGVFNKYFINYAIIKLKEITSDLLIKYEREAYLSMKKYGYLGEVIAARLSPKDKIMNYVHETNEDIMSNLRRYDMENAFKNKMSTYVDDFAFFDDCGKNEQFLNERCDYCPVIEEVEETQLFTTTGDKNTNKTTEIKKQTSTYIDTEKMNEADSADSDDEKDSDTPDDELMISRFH
Chain of PSAC of Dd2 transfectant expressing HB3 allele for PFC0120w (clag 3.1) (O77310 whole entry, looked up): as above
T2 sequence (A0A1W6IZK1 whole entry, looked up): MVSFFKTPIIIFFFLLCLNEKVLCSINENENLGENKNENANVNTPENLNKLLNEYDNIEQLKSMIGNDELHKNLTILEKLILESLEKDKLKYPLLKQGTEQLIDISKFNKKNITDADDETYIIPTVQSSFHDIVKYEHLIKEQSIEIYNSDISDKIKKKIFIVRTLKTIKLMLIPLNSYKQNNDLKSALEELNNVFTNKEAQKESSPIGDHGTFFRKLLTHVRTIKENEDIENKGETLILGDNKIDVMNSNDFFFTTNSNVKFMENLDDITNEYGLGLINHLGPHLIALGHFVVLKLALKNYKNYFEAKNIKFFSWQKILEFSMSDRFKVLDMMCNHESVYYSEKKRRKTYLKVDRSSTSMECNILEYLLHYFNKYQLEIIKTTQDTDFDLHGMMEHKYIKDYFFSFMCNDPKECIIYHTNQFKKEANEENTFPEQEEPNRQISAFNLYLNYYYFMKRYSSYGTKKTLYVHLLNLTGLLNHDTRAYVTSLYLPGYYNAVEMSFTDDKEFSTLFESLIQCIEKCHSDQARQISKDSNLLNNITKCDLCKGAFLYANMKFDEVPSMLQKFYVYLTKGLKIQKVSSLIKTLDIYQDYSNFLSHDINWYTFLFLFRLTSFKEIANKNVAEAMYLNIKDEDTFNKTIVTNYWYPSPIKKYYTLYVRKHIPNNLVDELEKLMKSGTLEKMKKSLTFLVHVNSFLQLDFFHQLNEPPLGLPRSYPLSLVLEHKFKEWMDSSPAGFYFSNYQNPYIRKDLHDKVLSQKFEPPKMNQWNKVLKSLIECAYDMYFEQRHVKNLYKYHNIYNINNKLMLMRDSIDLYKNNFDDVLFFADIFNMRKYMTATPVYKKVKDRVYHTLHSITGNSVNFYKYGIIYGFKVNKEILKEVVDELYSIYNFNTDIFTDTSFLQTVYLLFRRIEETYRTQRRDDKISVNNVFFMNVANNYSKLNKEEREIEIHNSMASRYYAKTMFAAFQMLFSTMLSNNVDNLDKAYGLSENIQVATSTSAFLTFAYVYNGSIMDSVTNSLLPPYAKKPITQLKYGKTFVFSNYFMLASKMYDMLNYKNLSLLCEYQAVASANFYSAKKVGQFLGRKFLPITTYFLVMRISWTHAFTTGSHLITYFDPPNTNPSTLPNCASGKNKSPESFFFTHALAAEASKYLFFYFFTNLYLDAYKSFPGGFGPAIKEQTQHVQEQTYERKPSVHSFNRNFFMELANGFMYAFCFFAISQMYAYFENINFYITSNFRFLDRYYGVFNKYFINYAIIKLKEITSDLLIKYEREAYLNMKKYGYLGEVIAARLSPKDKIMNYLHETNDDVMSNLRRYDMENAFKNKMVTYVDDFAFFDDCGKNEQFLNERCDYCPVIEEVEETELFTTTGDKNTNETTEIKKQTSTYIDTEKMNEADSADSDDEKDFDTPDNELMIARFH

Compound	IC50 (Dd2 parasites; Plasmodium falciparum, DD2, PLM) [µM]	IC50 (Dd2 parasites; Plasmodium falciparum, DD2, RPMI-based media) [µM]	IC50 (Dd2 parasites; RPMI-based media) [µM]	IC50 [1] [µM]	single PSAC channel inhibition (HB3 channels)	IC50 [2] [µM]	difference in half-maximal affinities [3] [fold]	IC50 (HB3 parasites; HB3, PLM) [µM]	IC50 (HB3 parasites; HB3, RPMI-based media) [µM]	channel's ISPA-28 affinity [4]	effects on uptake of alanine, proline and phenyl-trimethylammonium (PhTMA) (PSAC [5])	efficacy after metabolism under in vitro culture conditions [6]	single PSAC channel inhibition (Dd2 channels)	transport inhibition in 22 laboratory parasite lines (PSAC [7])	growth inhibition sensitivity (HB3^3rec)	IC50 [8] [µM]	IC50 [9] [µM]	higher affinity for channels formed by Dd2 clag3.2 than clag3.1 [10] [fold]	IC50 [11] [µM]
CCn1cc(C2=NOC(C(=O)Nc3c(C)n(C)n(-c4ccccc4)c3=O)C2)c(C)n1 (stereo not shown) [ISPA-28]	0.66 ± 0.2	> 40	~50	0.095 ± 0.008	largely unaffected	0.14 ± 0.012	~800	52 ± 19	> 40	intermediate between those of HB3 and Dd2	inhibited with dose responses matching those for sorbitol	not compromised by metabolism	near-fully inhibited	significant transport inhibition was found with only Dd2 and W2	sensitive to ISPA-28 at levels matching Dd2	43 ± 2			
CCC(CC)C(=O)Nc1ncc2c(n1)CC(c1ccc(OC)c(OC)c1)CC2=O (stereo not shown) [ISPA-43]																	32	10	3.9
